# Measured values: paper PMC9594040, “Structure-Based Discovery of Negative Allosteric Modulators of the Metabotropic Glutamate Receptor 5” (ACS Chemical Biology, 2022)
# Like-named read-outs stand apart in the source and are kept apart here.
# Tests used:
# [1] = target: T1, human mGlu5 (Homo sapiens, UniProt P41594); test: Radioligand displacement assay (radiolabeled MPEP) on membranes of HEK293 cells stably expressing mGlu5; details: Ki
# Method: Treated cells were harvested with PBS/2 mM EDTA and washed three times with ice-cold PBS and frozen at −80 °C. The frozen cell pellet was resuspended in membrane buffer (25 mM Tris/7.4, 250 mM sucrose, 2.5 mM EDTA, 2 ug/ml aprotinin, 0.5 ug/ml leupeptin and 200 nM PMSF) and homogenized with a polytron 20–30 s at maximum power. After centrifugation at 18,000 RPM for 30 min at 4 °C, the pellet was resuspended in ice-cold membrane buffer, hand-homogenized, and centrifuged as described above. This pellet was further resuspended in ice-cold membrane buffer. The protein content was measured using the Bradford method with bovine serum albumin as the standard. The membrane homogenate was frozen at −80 °C before use. After thawing, the membranes were washed once and resuspended in ice-cold 50 mM Tris–HCl, 0.9% NaCl, pH 7.4 buffer. All incubations were performed at room temperature. For the displacement binding experiments, 15 μg of membranes were incubated with 5 nM the radioligand in the presence of 10 varying concentrations of the test compound for 2 h at room temperature with shaking. At the end of the respective incubations, the suspension was filtered onto PerkinElmer GF/C glass fiber filters (1450–421) pre-soaked in 0.5% polyethyleneimine and washed rapidly four times using a Tomtec Harvester 96 Mach III cell harvester (Tomtec, Hamden, CT) with 5 mL of cold wash buffer (50 mM Tris–HCl, pH 7.4). The radioactivity trapped on the filters was measured after heat sealing the filters with MeltiLexTM A (PerkinElmer, 1450–441) in a 1450 MicroBeta TriLux counter (PerkinElmer). […] IC50 values were derived from the inhibition curve, and Ki values were calculated according to the Cheng-Prusoff equation of Ki = IC50/(1 + [L]/Kd),[61] where [L] is the concentration of radioligand and Kd is its dissociation constant at the receptor, derived from the saturation isotherm.
# [2] = target: T1, human mGlu5; test: IP1 functional assay, quisqualate-stimulated HEK293 cells expressing mGlu5; type: cell-based; design: expressed in transfected cells; host or cells: HEK293 cells, transient electroporation; glutamate transporter EAAC1 co-transfected; details: for functional activity in IP1 assay: agonist (quisqualate)-induced mGlu5-dependent IP1 production
# Method: Figure 3 Evaluation of compounds F1 and F2 in functional assays. Representative dose–response curve of compounds (a) F1 and (b) F2 in an IP1 functional assay. […] Each point was performed in triplicate and is shown as a mean ± SEM of 3–5 independent experiments.
# HEK293 cells were cultured in Dulbecco’s modified Eagle’s medium (DMEM) supplemented with 10% fetal bovine serum (FBS) and were maintained at 37 °C in a humidified atmosphere with 5% CO2. Transient transfection was performed using electroporation in a volume of […] with […] of plasmid encoding SNAP-tag human mGlu5, […] plasmid encoding for the glutamate transporter EAAC1 plasmids, and 10 million of HEK293 cells in electroporation buffer (50 mM K2HPO4, 20 mM CH3COOK, and 20 mM KOH, pH 7.4). After electroporation (250 V, 0.5 mF, Bio–Rad Gene Pulser electroporator; Bio-Rad Laboratories, Hercules, CA), cells were resuspended in 10 mL of DMEM supplemented with 10% FBS and seeded for 24 h into black, clear-bottom 96-well culture plates (Greiner Bio-one), pretreated with Poly-L-Ornithine 1X, at a density of 100,000 cells per well. Following 24 h of transfection, HEK293 cells were incubated for 2 h with glutamate-free DMEM GlutaMAX-I (Life Technologies). The IP1 accumulation assay kit (Cisbio Bioassays, PerkinElmer) was used for the direct quantitative measurement of IP1. Cells were stimulated by quisqualate at EC80 alone and with various concentrations of allosteric compounds, incubated for 30 min at 37 °C, 5% CO2. Cells were then lysed using the conjugate-lysis buffer mixed with the d2-labeled IP1 analogue and the Lumi4-terbium cryptate-labeled anti-IP1 antibody according to the manufacturer’s instructions. After a 1 h incubation at room temperature, the HTRF measurement was performed after excitation at 337 nm with 50 μs delay. Terbium cryptate fluorescence and tr-FRET signals were measured at 620 and 665 nm, respectively, using a PheraStar fluorimeter (BMG Labtech).
# [3] = radioligand displacement, mean ± SEM of two experiments
# [4] = analogues of F1, read-out: IC50
# [5] = quisqualate 50 nM, mean ± SEM of 3–5 independent experiments, read-out: pIC50 (converted)
# T1 sequence (P41594 21-1212): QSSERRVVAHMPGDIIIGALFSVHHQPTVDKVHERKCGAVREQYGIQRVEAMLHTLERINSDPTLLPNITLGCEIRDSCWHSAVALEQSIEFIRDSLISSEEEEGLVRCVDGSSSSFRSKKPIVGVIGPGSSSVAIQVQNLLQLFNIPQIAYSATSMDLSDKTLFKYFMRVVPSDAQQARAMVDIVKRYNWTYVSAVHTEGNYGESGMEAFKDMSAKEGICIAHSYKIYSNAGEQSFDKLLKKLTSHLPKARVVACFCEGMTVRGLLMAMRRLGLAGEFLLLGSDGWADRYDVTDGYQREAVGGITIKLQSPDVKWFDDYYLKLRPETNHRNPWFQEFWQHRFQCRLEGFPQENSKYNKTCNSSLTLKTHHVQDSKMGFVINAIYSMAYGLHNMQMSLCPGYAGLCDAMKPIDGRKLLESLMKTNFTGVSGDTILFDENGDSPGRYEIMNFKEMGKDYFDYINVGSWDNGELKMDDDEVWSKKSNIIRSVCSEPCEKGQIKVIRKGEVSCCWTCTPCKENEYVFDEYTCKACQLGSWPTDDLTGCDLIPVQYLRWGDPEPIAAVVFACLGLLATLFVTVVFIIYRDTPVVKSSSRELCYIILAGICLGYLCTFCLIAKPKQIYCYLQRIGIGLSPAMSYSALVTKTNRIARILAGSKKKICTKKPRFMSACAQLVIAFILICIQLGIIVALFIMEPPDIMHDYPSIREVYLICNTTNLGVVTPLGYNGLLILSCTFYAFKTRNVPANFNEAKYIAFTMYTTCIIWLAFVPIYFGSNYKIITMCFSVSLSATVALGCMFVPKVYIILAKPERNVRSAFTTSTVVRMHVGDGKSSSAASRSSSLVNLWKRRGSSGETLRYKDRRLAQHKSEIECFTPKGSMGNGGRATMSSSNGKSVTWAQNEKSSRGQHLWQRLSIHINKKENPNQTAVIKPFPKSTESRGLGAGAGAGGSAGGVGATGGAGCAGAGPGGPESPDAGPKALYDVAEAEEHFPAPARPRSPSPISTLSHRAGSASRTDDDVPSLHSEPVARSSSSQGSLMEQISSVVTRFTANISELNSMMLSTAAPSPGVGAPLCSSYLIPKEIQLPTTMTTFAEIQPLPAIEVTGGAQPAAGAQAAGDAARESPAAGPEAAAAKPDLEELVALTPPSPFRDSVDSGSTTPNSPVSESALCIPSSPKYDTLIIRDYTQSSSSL
SMILES,"Ki [1, 3] [nM]",functional activity in IP1 assay [2],"IC50 [2, 4] [nM]","IC50 [2, 5] [nM]","Ki ([1]; resynthesized pure sample of F2, new binding assays) [nM]"
Cn1c(SCc2noc(-c3ccoc3)n2)nnc1-c1ccco1 [L2],1100 ± 100,negatively modulated,,,
COc1cccc(CNc2ccccc2)c1 [FA2],,inactive,> 100000,,
N#Cc1cccc(NCc2ccccc2)c1 [FA1],,inactive,> 100000,,
COc1cccc(CNc2cccc(C#N)c2)c1 [F1],430 ± 10,acted as NAMs,,6310,
Cc1cnn(CC2CCCCN2C(=O)c2cc(-c3ccco3)on2)c1 (stereo not drawn) [L1],990 ± 150,negatively modulated,,,
COCc1cccc(/C=C/c2cccc(C)n2)c1 [F2],920 ± 120,acted as NAMs,,7940,550
